Experiment in all cases: PI3K enzyme inhibitory activity in the cell free assay (ADP-Glo Kinase Assay)
Holding throughout (assay type): biochemical
(In general: ADP-Glo first removes unused ATP, then detects ADP through luciferase.)

One experiment addresses T1, PI3Kα (Homo sapiens, UniProt P42336).
T1 construct: purchased Millipore Ltd (Billerica, Mass.)
The note with it: human recombinant PI3Kα, ATP 50 μM; read-out: PI3K alpha inhibition.

Another experiment has as its target T2, PI3Kβ (Homo sapiens, UniProt P42338).
T2 construct: purchased Millipore Ltd (Billerica, Mass.)
The note with it: human recombinant PI3Kβ, ATP 100 μM; read-out: PI3K beta inhibition.

In the next experiment the target is T3, PI3Kδ (Homo sapiens, UniProt O00329).
T3 construct: purchased Millipore Ltd (Billerica, Mass.)
T3 sequence (O00329 1-1044): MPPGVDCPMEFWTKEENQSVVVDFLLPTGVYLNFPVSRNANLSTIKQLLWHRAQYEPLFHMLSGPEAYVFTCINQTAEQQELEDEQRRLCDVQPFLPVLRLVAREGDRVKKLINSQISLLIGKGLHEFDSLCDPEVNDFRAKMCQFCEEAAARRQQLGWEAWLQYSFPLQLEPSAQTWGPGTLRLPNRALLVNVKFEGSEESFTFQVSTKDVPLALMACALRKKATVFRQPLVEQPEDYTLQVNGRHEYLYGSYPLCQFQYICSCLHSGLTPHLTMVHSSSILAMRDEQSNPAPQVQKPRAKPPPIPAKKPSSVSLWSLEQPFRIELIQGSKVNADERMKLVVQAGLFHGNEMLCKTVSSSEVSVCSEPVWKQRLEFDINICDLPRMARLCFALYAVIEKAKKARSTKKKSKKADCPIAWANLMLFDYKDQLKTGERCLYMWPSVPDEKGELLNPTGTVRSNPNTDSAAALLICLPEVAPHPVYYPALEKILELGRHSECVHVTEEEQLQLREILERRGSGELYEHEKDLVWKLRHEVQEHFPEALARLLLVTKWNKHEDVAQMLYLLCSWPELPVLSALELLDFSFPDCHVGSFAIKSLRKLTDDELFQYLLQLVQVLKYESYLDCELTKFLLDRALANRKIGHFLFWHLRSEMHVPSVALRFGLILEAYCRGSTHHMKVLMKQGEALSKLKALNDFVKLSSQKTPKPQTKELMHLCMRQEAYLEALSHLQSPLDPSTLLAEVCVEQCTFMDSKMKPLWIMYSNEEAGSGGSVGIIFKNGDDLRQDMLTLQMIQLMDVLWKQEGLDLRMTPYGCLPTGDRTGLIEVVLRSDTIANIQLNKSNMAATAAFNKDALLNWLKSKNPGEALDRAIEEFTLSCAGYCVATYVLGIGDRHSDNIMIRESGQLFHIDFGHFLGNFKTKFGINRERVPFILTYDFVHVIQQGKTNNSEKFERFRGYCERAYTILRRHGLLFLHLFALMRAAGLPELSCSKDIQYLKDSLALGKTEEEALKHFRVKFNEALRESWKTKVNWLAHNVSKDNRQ
The conditions noted are these: human recombinant PI3Kδ, ATP 80 μM; read-out: PI3K delta inhibition.

Another experiment deals with T4, PI3Kγ (Homo sapiens, UniProt P48736).
T4 construct: purchased Millipore Ltd (Billerica, Mass.)
The conditions noted are these: human recombinant PI3Kγ, ATP 30 μM; read-out: PI3K gamma inhibition.

pIC50: −log10 of the molar value. Where a name gives a salt, the structure may show the parent alone.

T2 sequence (P42338 whole entry): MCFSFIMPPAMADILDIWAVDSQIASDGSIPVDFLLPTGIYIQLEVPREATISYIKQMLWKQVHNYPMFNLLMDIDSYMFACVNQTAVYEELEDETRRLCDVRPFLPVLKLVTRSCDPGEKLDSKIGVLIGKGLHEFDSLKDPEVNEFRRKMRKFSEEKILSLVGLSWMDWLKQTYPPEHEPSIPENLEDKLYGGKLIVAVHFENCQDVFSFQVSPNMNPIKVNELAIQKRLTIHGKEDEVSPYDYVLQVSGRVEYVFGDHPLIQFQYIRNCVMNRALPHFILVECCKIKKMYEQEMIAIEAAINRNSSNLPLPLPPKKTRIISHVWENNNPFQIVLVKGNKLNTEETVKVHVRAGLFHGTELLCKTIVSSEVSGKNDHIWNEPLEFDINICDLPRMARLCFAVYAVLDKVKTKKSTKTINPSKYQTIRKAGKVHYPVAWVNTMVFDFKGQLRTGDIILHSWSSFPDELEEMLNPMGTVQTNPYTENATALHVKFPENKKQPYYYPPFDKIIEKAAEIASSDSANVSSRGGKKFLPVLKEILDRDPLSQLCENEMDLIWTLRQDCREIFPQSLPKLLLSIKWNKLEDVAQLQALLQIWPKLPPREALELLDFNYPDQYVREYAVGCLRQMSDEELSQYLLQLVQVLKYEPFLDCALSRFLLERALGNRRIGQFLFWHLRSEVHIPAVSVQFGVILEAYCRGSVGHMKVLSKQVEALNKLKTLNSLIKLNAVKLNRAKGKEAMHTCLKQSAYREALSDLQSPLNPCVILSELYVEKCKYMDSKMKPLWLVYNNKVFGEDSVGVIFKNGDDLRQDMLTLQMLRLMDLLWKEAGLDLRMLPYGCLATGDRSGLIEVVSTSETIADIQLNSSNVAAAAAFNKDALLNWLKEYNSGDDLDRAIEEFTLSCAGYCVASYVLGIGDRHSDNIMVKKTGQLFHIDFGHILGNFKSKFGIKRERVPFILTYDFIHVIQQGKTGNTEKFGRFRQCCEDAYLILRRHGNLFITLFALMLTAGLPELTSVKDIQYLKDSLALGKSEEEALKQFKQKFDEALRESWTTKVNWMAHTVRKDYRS
T4 sequence (P48736 whole entry): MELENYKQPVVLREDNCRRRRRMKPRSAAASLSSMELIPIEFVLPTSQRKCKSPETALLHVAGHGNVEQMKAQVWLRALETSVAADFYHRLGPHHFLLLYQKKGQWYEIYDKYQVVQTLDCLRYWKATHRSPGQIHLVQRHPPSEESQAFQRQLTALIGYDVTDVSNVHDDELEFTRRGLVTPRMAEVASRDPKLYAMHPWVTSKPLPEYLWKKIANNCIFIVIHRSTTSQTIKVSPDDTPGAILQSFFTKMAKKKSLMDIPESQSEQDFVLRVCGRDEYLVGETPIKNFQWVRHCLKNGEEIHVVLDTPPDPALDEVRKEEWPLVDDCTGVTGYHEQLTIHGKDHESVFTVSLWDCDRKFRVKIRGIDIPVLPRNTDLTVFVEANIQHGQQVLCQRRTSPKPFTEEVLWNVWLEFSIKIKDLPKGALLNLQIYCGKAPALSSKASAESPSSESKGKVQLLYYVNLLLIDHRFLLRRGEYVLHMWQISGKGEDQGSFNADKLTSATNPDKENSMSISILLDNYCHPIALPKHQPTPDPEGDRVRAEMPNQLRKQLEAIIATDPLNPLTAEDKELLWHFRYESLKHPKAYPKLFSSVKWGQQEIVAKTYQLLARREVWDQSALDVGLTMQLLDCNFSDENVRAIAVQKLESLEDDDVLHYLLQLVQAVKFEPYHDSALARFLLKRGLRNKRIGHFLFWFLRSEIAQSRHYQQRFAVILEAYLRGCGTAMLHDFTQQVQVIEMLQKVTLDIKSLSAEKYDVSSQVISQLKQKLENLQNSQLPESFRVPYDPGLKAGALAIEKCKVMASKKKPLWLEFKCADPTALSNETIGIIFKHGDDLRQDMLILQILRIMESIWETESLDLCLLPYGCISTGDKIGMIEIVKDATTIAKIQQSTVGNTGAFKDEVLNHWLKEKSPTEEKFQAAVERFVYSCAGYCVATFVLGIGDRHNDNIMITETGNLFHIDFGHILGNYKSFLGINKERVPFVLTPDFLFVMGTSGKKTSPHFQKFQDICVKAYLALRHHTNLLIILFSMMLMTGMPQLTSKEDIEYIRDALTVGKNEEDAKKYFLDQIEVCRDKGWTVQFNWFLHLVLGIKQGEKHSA
T1 sequence (P42336 whole entry): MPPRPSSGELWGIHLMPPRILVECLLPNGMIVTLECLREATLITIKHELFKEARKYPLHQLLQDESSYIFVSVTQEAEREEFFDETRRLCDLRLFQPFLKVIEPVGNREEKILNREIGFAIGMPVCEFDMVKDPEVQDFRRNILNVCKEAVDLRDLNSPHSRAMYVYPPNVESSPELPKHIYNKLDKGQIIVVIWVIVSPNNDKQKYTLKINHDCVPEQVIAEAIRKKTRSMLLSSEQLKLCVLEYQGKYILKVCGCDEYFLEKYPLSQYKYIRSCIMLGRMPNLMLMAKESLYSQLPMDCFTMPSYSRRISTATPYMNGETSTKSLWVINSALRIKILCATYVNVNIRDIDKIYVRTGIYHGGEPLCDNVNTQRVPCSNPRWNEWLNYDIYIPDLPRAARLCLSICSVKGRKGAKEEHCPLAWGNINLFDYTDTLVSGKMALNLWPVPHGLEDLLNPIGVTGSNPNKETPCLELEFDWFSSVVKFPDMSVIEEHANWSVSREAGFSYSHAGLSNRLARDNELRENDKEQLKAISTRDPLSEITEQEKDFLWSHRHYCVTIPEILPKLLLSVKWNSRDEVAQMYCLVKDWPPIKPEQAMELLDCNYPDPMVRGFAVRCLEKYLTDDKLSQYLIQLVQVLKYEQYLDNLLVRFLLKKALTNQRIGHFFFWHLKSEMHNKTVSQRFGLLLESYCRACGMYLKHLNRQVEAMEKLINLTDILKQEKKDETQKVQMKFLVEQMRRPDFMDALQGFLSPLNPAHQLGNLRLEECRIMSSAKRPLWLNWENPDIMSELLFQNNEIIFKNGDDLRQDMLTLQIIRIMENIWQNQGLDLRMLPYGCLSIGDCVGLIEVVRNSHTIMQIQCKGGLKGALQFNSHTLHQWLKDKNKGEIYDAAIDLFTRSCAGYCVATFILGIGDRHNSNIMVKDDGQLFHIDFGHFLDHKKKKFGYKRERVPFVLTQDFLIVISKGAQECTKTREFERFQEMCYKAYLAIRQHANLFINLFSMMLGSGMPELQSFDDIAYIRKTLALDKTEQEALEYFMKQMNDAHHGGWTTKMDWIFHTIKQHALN

For `CC(c1oc(=O)c2ccccc2c1-c1ccc(CN2CCOCC2)s1)n1nc(-c2cc(O)cc(F)c2)c2c(N)ncnc21` (single isomer, unassigned) [Example 49a, 3-(1-(4-amino-3-(3-fluoro-5-hydroxyphenyl)-1H-pyrazolo[3,4-d]pyrimidin-1-yl)ethyl)-4-(5-(morpholinomethyl)thiophen-2-yl)-1H-isochromen-1-one hydrochloride], the pIC50 is 6.00 to 8.00 on PI3Kα, 6.00 to 8.00 at PI3Kβ, over 8.00 on PI3Kδ and 6.00 to 8.00 on PI3Kγ.

With `CC(c1oc(=O)c2ccccc2c1C1=CCCN(Cc2ccccc2)C1)n1nc(-c2cc(O)cc(F)c2)c2c(N)ncnc21` (single isomer, unassigned) [Example 169b, 3-(1-(4-amino-3-(3-fluoro-5-hydroxyphenyl)-1H-pyrazolo[3,4-d]pyrimidin-1-yl)ethyl)-4-(1-benzyl-1,2,5,6-tetrahydropyridin-3-yl)-1H-isochromen-1-one hydrochloride single enantiomers], the pIC50 on PI3Kα is under 6.00; on PI3Kβ it was 6.00 to 8.00.

In the case of `O=c1oc(CNc2ncnc3[nH]cnc23)c(-c2ccccc2)c2ccccc12` [Example 29, 3-((9H-Purin-6-ylamino)methyl)-4-phenyl-1H-isochromen-1-one], the pIC50 was under 6.00 on PI3Kα and 6.00 to 8.00 on PI3Kγ.

In the case of `Cc1cccc(-c2c(C(C)n3nc(-c4cn[nH]c4)c4c(N)ncnc43)oc(=O)c3ccccc23)c1` (centres unmarked) [Example 42, 3-(1-(4-Amino-3-(1H-pyrazol-4-yl)-1H-pyrazolo[3,4-d]pyrimidin-1-yl)ethyl)-4-m-tolyl-1H-isochromen-1-one], the figures for the pIC50 at PI3Kα, on PI3Kδ and at PI3Kγ were under 6.00, over 8.00 and 6.00 to 8.00, respectively.

`CC(Nc1ncnc(N)c1C#N)c1oc(=O)c2ccccc2c1-c1ccc(CN2CCOCC2)s1` (centres unmarked) [Example 82, 4-amino-6-((1-(4-(5-(morpholinomethyl)thiophen-2-yl)-1-oxo-1H-isochromen-3-yl)ethyl)amino)pyrimidine-5-carbonitrile hydrochloride]: the pIC50 on PI3Kβ is under 6.00; on PI3Kδ it was over 8.00; on PI3Kγ, 6.00 to 8.00.

Take `CC(c1oc(=O)c2ccccc2c1-c1ccccc1)n1nc(-c2cncc(NS(=O)(=O)c3ccc(F)cc3)c2)c2c(N)ncnc21` (centres unmarked) [Example 87, N-(5-(4-amino-1-(1-(1-oxo-4-phenyl-1H-isochromen-3-yl)ethyl)-1H-pyrazolo[3,4-d]pyrimidin-3-yl)pyridin-3-yl)-4-fluorobenzenesulfonamide]: the pIC50 on PI3Kα, on PI3Kδ and on PI3Kγ was 6.00 to 8.00 each time.

In the case of `CC(c1oc(=O)c2ccccc2c1-c1ccccc1)n1nc(-c2cncc(N)c2)c2c(N)ncnc21` (centres unmarked) [Example 88, 3-(1-(4-amino-3-(5-aminopyridin-3-yl)-1H-pyrazolo[3,4-d]pyrimidin-1-yl)ethyl)-4-phenyl-1H-isochromen-1-one hydrochloride], the figures for the pIC50 at PI3Kβ, on PI3Kδ and on PI3Kγ were 6.00 to 8.00, 6.00 to 8.00 and under 6.00, respectively.

As for `CC(c1oc(=O)c2ccccc2c1-c1ccccc1)n1nc(C(F)(F)F)c2c(N)ncnc21` (centres unmarked) [Example 104, 3-(1-(4-amino-3-(trifluoromethyl)-1H-pyrazolo[3,4-d]pyrimidin-1-yl)ethyl)-4-phenyl-1H-isochromen-1-one], the pIC50 at PI3Kβ was under 6.00; at PI3Kδ it was 6.00 to 8.00; at PI3Kγ, under 6.00.

With `Cc1nn(C(C)c2oc(=O)c3ccccc3c2-c2ccccc2)c2ncnc(N)c12` (centres unmarked) [Example 105, 3-(1-(4-amino-3-methyl-1H-pyrazolo[3,4-d]pyrimidin-1-yl)ethyl)-4-phenyl-1H-isochromen-1-one], the pIC50 on PI3Kβ was 6.00 to 8.00; on PI3Kδ, over 8.00; at PI3Kγ, 6.00 to 8.00.

As to `CC(c1oc(=O)c2ccccc2c1-c1ccccc1)n1nc(-c2cc[nH]n2)c2c(N)ncnc21` (centres unmarked) [Example 111, 3-(1-(4-amino-3-(1H-pyrazol-3-yl)-1H-pyrazolo[3,4-d]pyrimidin-1-yl)ethyl)-4-phenyl-1H-isochromen-1-one], the pIC50 was under 6.00 on PI3Kα, 6.00 to 8.00 on PI3Kδ and 6.00 to 8.00 on PI3Kγ.

Regarding `CC(c1oc(=O)c2ccccc2c1-c1ccccc1)n1nc(-c2cccc3[nH]ncc23)c2c(N)ncnc21` (centres unmarked) [Example 112, 3-(1-(4-amino-3-(1H-indazol-4-yl)-1H-pyrazolo[3,4-d]pyrimidin-1-yl)ethyl)-4-phenyl-1H-isochromen-1-one], the values for the pIC50 on PI3Kβ, at PI3Kδ and on PI3Kγ were under 6.00, 6.00 to 8.00 and 6.00 to 8.00, respectively.

Regarding `CC(c1oc(=O)c2ccccc2c1-c1ccc(CN2CCNCC2)cc1)n1nc(-c2cc(O)cc(F)c2)c2c(N)ncnc21` (centres unmarked) [Example 125, 3-(1-(4-amino-3-(3-fluoro-5-hydroxyphenyl)-1H-pyrazolo[3,4-d]pyrimidin-1-yl)ethyl)-4-(4-(piperazin-1-ylmethyl)phenyl)-1H-isochromen-1-one dihydrochloride], the pIC50 at PI3Kβ is under 6.00; on PI3Kδ, 6.00 to 8.00; on PI3Kγ, under 6.00.

In the case of `CC(c1oc(=O)c2ccccc2c1C1=CCN(Cc2ccccc2)CC1)n1nc(-c2cc(O)cc(F)c2)c2c(N)ncnc21` (centres unmarked) [Example 131, 3-(1-(4-amino-3-(3-fluoro-5-hydroxyphenyl)-1H-pyrazolo[3,4-d]pyrimidin-1-yl)ethyl)-4-(1-benzyl-1,2,3,6-tetrahydropyridin-4-yl)-1H-isochromen-1-one hydrochloride], the pIC50 was under 6.00 on PI3Kβ, 6.00 to 8.00 at PI3Kδ and under 6.00 at PI3Kγ.

`CC(c1oc(=O)c2ccccc2c1-c1cccc(CN2CCCCC2)c1)n1nc(-c2cc(O)cc(F)c2)c2c(N)ncnc21` (centres unmarked) [Example 143, 3-(1-(4-amino-3-(3-fluoro-5-hydroxyphenyl)-1H-pyrazolo[3,4-d]pyrimidin-1-yl)ethyl)-4-(3-(piperidin-1-ylmethyl)phenyl)-1H-isochromen-1-one, Formate]: the pIC50 was 6.00 to 8.00 at PI3Kβ, 6.00 to 8.00 at PI3Kδ and under 6.00 on PI3Kγ.

Turning to `CC(c1oc(=O)c2ccccc2c1C#CCN(C)C)n1nc(-c2cc(O)cc(F)c2)c2c(N)ncnc21` (centres unmarked) [Example 158, 3-(1-(4-amino-3-(3-fluoro-5-hydroxyphenyl)-1H-pyrazolo[3,4-d]pyrimidin-1-yl)ethyl)-4-(3-(dimethylamino)prop-1-yn-1-yl)-1H-isochromen-1-one hydrochloride], the pIC50 on PI3Kα, on PI3Kβ and at PI3Kδ was 6.00 to 8.00 throughout.

As for `Cc1c(O)cncc1-c1nn(C(C)c2oc(=O)c3ccccc3c2-c2ccccc2)c2ncnc(N)c12` (centres unmarked) [Example 159, 3-(1-(4-amino-3-(5-hydroxy-4-methylpyridin-3-yl)-1H-pyrazolo[3,4-d]pyrimidin-1-yl)ethyl)-4-phenyl-1H-isochromen-1-one], the pIC50 on PI3Kβ is under 6.00; on PI3Kδ it was 6.00 to 8.00; on PI3Kγ, 6.00 to 8.00.

Take `Cc1ncc(O)cc1-c1nn(C(C)c2oc(=O)c3ccccc3c2-c2ccccc2)c2ncnc(N)c12` (centres unmarked) [Example 160, 3-(1-(4-amino-3-(5-hydroxy-2-methylpyridin-3-yl)-1H-pyrazolo[3,4-d]pyrimidin-1-yl)ethyl)-4-phenyl-1H-isochromen-1-one]: the pIC50 at PI3Kβ was 6.00 to 8.00; at PI3Kδ, over 8.00; on PI3Kγ, 6.00 to 8.00.

As to `Cc1ccc2c(-c3ccccc3)c(C(C)n3nc(-c4cc(O)cc(F)c4)c4c(N)ncnc43)oc(=O)c2c1` (centres unmarked) [Example 162, 3-(1-(4-amino-3-(3-fluoro-5-hydroxyphenyl)-1H-pyrazolo[3,4-d]pyrimidin-1-yl)ethyl)-7-methyl-4-phenyl-1H-isochromen-1-one], the pIC50 on PI3Kα is under 6.00; at PI3Kδ, 6.00 to 8.00; at PI3Kγ, 6.00 to 8.00.

Regarding `Nc1ncnc2c1c(I)nn2Cc1oc(=O)c2ccccc2c1-c1ccccc1` [Int D1, 3-((4-Amino-3-iodo-1H-pyrazolo[3,4-d]pyrimidin-1-yl)methyl)-4-phenyl-1H-isochromen-1-one], the results for the pIC50 on PI3Kβ, at PI3Kδ and at PI3Kγ were under 6.00, 6.00 to 8.00 and 6.00 to 8.00, respectively.

The values above are taken from patent publication US9321776B2, “Isochromene derivatives as phoshoinositide 3-kinases inhibitors” (CHIESI FARMACEUTICI S.p.A., priority 2013, dated 2016).
